Results on 4 compounds are retold here after patent US20240108601A1, “TREATMENT OF MENTAL DISORDERS” (GH Research Ireland Limited, priority 2022, published 2024).

A short description of series [1]: Pharmacokinetics of 5-MeO-DMT and bufotenine after single inhaled dose. It is filed as in vivo, human. As to conditions: from 15 min onwards after 5-MeO-DMT inhalation; LLOQ. On the procedure: Blood samples were obtained at 1; 2; 4; 7; 10; 15; 20; 30; 45 min and 1; 1.5; 2; 3; 4 hours after administration.
PK parameters were generated by algebraic analysis of the concentration versus time plots for each individual. The analysis was carried out using the software Phoenix WinNonlin 6.3.

Series [2] is described as follows: LC-MS/MS of 5-MeO-DMT, bufotenine and 5-MIAA in urine, serum and breastmilk of lactating PPD patient; infant exposure estimates. As to conditions: for Breastmilk concentration / Serum concentration / Urine concentration: second patient. From the text:
When determining the potential impact of maternal drug administration on a breastfed infant, it is standard practice to calculate the Relative Infant Dose (RID) (Bennett, P. N., and L. J. Notarianni. “Risk from drugs in breast milk: an analysis by relative dose.” Br J Clin Pharmacol 42.5 (1996): P673-4). The RID is the dosage (in μg/kg/day) the infant is exposed to by the intake of breast milk, divided by the dosage (in μg/kg/day) the mother receives.
Using estimates for daily intake of breast milk and the number of feeds as well as the measured breast milk concentrations the exposure of the infant can be determined.
For example, a published estimate for daily intake of breast milk as a function of infant weight is 150 ml/kg/day. To model the exposure, it is assumed that an infant of 5 kg is fed three times over 24 hours, receiving 250 ml breast milk each time.
The second patient was lactating, and, per the clinical trial protocol, breastmilk samples were collected pre-dosing and at multiple timepoints after administration of the last dose. […] Similar analyses were carried out on patient serum and urine samples.

Series [3] has as its system human hepatocytes. The series can be described thus: Metabolite identification in human hepatocyte suspension. As to conditions: 5-MeO-DMT free base 10 μM, incubated up to 120 minutes. On the procedure: For incubations with cryopreserved hepatocytes, the 2 mM stock solution was diluted with Leibovitz L-15 medium to a concentration of 20 μM or 2 μM. An aliquot (250 μL) of the 20 μM and 2 μM test substance formulations was added to each hepatocyte incubation sample (250 μL), as appropriate, so that the final test substance concentration in the incubations was 10 μM or 1 μM, respectively, and incubations contained less than 1% (v/v) solvent.
Incubations were performed at ca. 37° C. in a shaking water bath (total incubation volume 0.5 mL). For 1 μM, incubations were terminated after 0, 5, 10, 20, 30, 60 and 120 minutes, by the addition of ice-cold acetonitrile (0.5 mL).
The samples were vortex mixed and centrifuged at ca 13,000 rpm for 10 minutes at room temperature. Following centrifugation, the protein-free supernatants were removed for analysis.
Blank control incubations were carried out with Leibovitz L-15 medium in place of the test substance. No cells control samples were performed with Leibovitz L-15 medium in place of hepatocytes. Aliquots of the blank control samples were taken at 120 minutes, while no cells control samples were taken at 0, 30 and 120 for 1 μM incubations and at 0 and 120 minutes for 10 μM incubations.
All 1 μM incubations were performed in duplicate, while all 10 μM incubations were performed in singlet. All samples were stored at −80° C. (nominal) prior to analysis.
Prior to sample analysis a 100 μL aliquot of each sample was evaporated to near dryness under a steady stream of nitrogen at room temperature, and subsequently reconstituted in 50 μL of mobile phase A (0.1% formic acid in water). Each sample (0, 30 and 120-minute, 10 μM) was analysed using accurate mass LC-MS to determine relative levels of parent compound at each time-point, and determine the profile of metabolites formed. Appropriate blank and control samples were also analysed. The 10 and 60-minute, 10 μM incubation samples were not analysed and were stored at −80° C. (nominal). […]

In series [4] the test system is human plasma protein. The series can be described thus: Plasma binding of 5-MIAA. The class given is in vitro ADME. On the procedure: (§1) Binding to human plasma protein was determined. Reported are the unbound fraction (fu) for three replicates as well as the mean unbound fraction, the standard deviation and the mean % recovery (Table 8).
Series [5] concerns human hepatocytes (Hμrel HumanPool co-culture). The series can be described thus: Metabolic stability in Hμrel human hepatocyte co-culture.
The nature of series [6]: Plasma binding of 5-MIAA. It is filed as in vitro ADME. To be noted: for fraction unbound: human, plasma. On the procedure: as §1
[7] abbreviates: 5 kg infant, three feeds of 250 ml.

Read-outs that look alike come from different tables or passages of the source. Some results are limits rather than exact numbers.

Consider `CN(C)CCc1c[nH]c2ccc(O)cc12` [Bufotenine], for which the “Blood concentration of metabolite bufotenine” value in series [1] is below 0.025 ng/mL. Besides, the Breastmilk concentration result in series [2] (1.0 hrs after last dose) was “BLQ (Below limit of quantification. The lower limit of quantification is 25 pg/ml for both 5-MeO-DMT and 5-MIAA in both serum and breastmilk; it is 25 pg/ml in urine for 5-MeO-DMT and 250 pg/ml for 5-MIAA in urine.)”; in series [2] (2.5 hrs after last dose) it was “BLQ (Below limit of quantification. The lower limit of quantification is 25 pg/ml for both 5-MeO-DMT and 5-MIAA in both serum and breastmilk; it is 25 pg/ml in urine for 5-MeO-DMT and 250 pg/ml for 5-MIAA in urine.)”; in series [2] (8.5 hrs after last dose), “BLQ (Below limit of quantification. The lower limit of quantification is 25 pg/ml for both 5-MeO-DMT and 5-MIAA in both serum and breastmilk; it is 25 pg/ml in urine for 5-MeO-DMT and 250 pg/ml for 5-MIAA in urine.)”; in series [2] (24.0 hrs after last dose) it was “BLQ (Below limit of quantification. The lower limit of quantification is 25 pg/ml for both 5-MeO-DMT and 5-MIAA in both serum and breastmilk; it is 25 pg/ml in urine for 5-MeO-DMT and 250 pg/ml for 5-MIAA in urine.)”; in series [2] (120.0 hrs after last dose), “BLQ (Below limit of quantification. The lower limit of quantification is 25 pg/ml for both 5-MeO-DMT and 5-MIAA in both serum and breastmilk; it is 25 pg/ml in urine for 5-MeO-DMT and 250 pg/ml for 5-MIAA in urine.)”; in series [2] (−24.0 hrs (pre-dosing)), “BLQ (Below limit of quantification. The lower limit of quantification is 25 pg/ml for both 5-MeO-DMT and 5-MIAA in both serum and breastmilk; it is 25 pg/ml in urine for 5-MeO-DMT and 250 pg/ml for 5-MIAA in urine.)”. In addition, the Serum concentration result in series [2] (1.0 hrs after last dose) was “BLQ (Below limit of quantification. The lower limit of quantification is 25 pg/ml for both 5-MeO-DMT and 5-MIAA in both serum and breastmilk; it is 25 pg/ml in urine for 5-MeO-DMT and 250 pg/ml for 5-MIAA in urine.)”; in series [2] (2.5 hrs after last dose), “BLQ (Below limit of quantification. The lower limit of quantification is 25 pg/ml for both 5-MeO-DMT and 5-MIAA in both serum and breastmilk; it is 25 pg/ml in urine for 5-MeO-DMT and 250 pg/ml for 5-MIAA in urine.)”; in series [2] (24.0 hrs after last dose), “BLQ (Below limit of quantification. The lower limit of quantification is 25 pg/ml for both 5-MeO-DMT and 5-MIAA in both serum and breastmilk; it is 25 pg/ml in urine for 5-MeO-DMT and 250 pg/ml for 5-MIAA in urine.)”; in series [2] (120.0 hrs after last dose), “BLQ (Below limit of quantification. The lower limit of quantification is 25 pg/ml for both 5-MeO-DMT and 5-MIAA in both serum and breastmilk; it is 25 pg/ml in urine for 5-MeO-DMT and 250 pg/ml for 5-MIAA in urine.)”; in series [2] (−24.0 hrs (pre-dosing)) it was “BLQ (Below limit of quantification. The lower limit of quantification is 25 pg/ml for both 5-MeO-DMT and 5-MIAA in both serum and breastmilk; it is 25 pg/ml in urine for 5-MeO-DMT and 250 pg/ml for 5-MIAA in urine.)”. Also, the Urine concentration result was “BLQ (Below limit of quantification. The lower limit of quantification is 25 pg/ml for both 5-MeO-DMT and 5-MIAA in both serum and breastmilk; it is 25 pg/ml in urine for 5-MeO-DMT and 250 pg/ml for 5-MIAA in urine.)” in series [2] (8.5 hrs after last dose); “BLQ (Below limit of quantification. The lower limit of quantification is 25 pg/ml for both 5-MeO-DMT and 5-MIAA in both serum and breastmilk; it is 25 pg/ml in urine for 5-MeO-DMT and 250 pg/ml for 5-MIAA in urine.)” in series [2] (24.0 hrs after last dose); “BLQ (Below limit of quantification. The lower limit of quantification is 25 pg/ml for both 5-MeO-DMT and 5-MIAA in both serum and breastmilk; it is 25 pg/ml in urine for 5-MeO-DMT and 250 pg/ml for 5-MIAA in urine.)” in series [2] (120.0 hrs after last dose); “BLQ (Below limit of quantification. The lower limit of quantification is 25 pg/ml for both 5-MeO-DMT and 5-MIAA in both serum and breastmilk; it is 25 pg/ml in urine for 5-MeO-DMT and 250 pg/ml for 5-MIAA in urine.)” in series [2] (−24.0 hrs (pre-dosing)). For the same compound, in series [3], the “Relative Proportion of compounds identified” value is 5%.
On to `COc1ccc2[nH]cc(CC[N+](C)(C)[O-])c2c1` [5-MeO-DMT-N-oxide], for which the “Relative Proportion of compounds identified” value in series [3] worked out at 1%.
Turning to 5-Methoxyindole acetic acid [5-MIAA], in series [4], the “Mean % Recovery” value came out at 81.4%; the “Plasma binding (mean fraction unbound)” value is around 50%; the “Unbound fraction (fu), Replicate 1” value worked out at 0.499; the “Unbound fraction (fu), Replicate 2” value was 0.462. For the same compound, in series [4], the “Unbound fraction (fu), Replicate 3” value stood at 0.544. In series [4] (three replicates), this compound came in with a Mean fu of 0.502. Also, the “Disappearance with stromal cell controls” value in series [5] (0-72 h) was “no disappearance”. Besides, the “Remaining abundance after 72h” value in series [5] (hepatocytes, 1 and 10 μM) is given as 75-82%. For the same compound, in series [5] (human hepatocytes, 1 μM), the “In vitro intrinsic clearance” value was found to be 0.15 μl/min/million cells. In series [2] (setting [7]), the “DID of 5-MIAA per kg” value is given as 0.001377 mg/kg/day and the “DID, total exposure of the infant to 5-MIAA” value is given as 0.006886 mg/day. Besides, in series [2] (1.0 hrs after last dose), the Breastmilk concentration is 13945.2 pg/mL and the Serum concentration is 263.092 ng/mL. Besides, in series [2] (2.5 hrs after last dose), the Breastmilk concentration is 13240.9 pg/mL and the Serum concentration was 101.9947 ng/mL. Moreover, in series [2] (8.5 hrs after last dose), the Breastmilk concentration was 359.4 pg/mL and the Urine concentration was 291651 pg/mL. In series [2] (24.0 hrs after last dose), the Breastmilk concentration is 35.5 pg/mL, the Serum concentration was 0.2706 ng/mL and the Urine concentration was 18649 pg/mL. In addition, in series [2] (120.0 hrs after last dose), the Breastmilk concentration entry was “BLQ (Below limit of quantification. The lower limit of quantification is 25 pg/ml for both 5-MeO-DMT and 5-MIAA in both serum and breastmilk; it is 25 pg/ml in urine for 5-MeO-DMT and 250 pg/ml for 5-MIAA in urine.)”; the Serum concentration is 0.0671 ng/mL; the Urine concentration was 9444 pg/mL. In series [2] (−24.0 hrs (pre-dosing)), the Breastmilk concentration result is “BLQ (Below limit of quantification. The lower limit of quantification is 25 pg/ml for both 5-MeO-DMT and 5-MIAA in both serum and breastmilk; it is 25 pg/ml in urine for 5-MeO-DMT and 250 pg/ml for 5-MIAA in urine.)”; the Serum concentration was 0.051 ng/mL; the Urine concentration was 8113 pg/mL.
`CC(=O)CC(c1ccccc1)c1c(O)c2ccccc2oc1=O` (stereo not shown) [Warfarin, reference compound] registered a recovery in series [6] (human plasma) of 78.1%. In addition, the fraction unbound in series [6] (read-out: Unbound fraction (fu), Replicate 1) was 0.0418; in series [6] (read-out: Unbound fraction (fu), Replicate 2), 0.0356; in series [6] (read-out: Unbound fraction (fu), Replicate 3) it was 0.0358; in series [6] (three replicates, read-out: Mean fu) it was 0.0377.
